In US6395762B1, “Phenyl amino squarate and thiadiazole dioxide beta-3 adrenergic receptor agonists” (American Home Products Corporation, priority 2000, dated 2002):
Where a name gives a salt, the structure may show the parent alone.

Tests used:
human β3-AR = target: T1, human β3-AR (Homo sapiens, UniProt P13945); test: cAMP accumulation (SPA) in CHO cells transfected with human β3-AR; assay type: cell-based; conditions: CHO cells transfected with human β3-AR; for EC50: cAMP by SPA, 30 min at 37° C., 10^−9 M to 10^−5 M, read-out: EC50(β3); for IA(β3): maximal response of compound relative to maximal response of isoproterenol at 10^−5 M
T1 construct: Full-length β3-AR clones (402 amino acids) containing the last 6 amino acids of hβ3-AR; expressed in transfected cells; host or cells: CHO (Chinese hamster ovary) cells
T1 sequence (P13945 whole entry): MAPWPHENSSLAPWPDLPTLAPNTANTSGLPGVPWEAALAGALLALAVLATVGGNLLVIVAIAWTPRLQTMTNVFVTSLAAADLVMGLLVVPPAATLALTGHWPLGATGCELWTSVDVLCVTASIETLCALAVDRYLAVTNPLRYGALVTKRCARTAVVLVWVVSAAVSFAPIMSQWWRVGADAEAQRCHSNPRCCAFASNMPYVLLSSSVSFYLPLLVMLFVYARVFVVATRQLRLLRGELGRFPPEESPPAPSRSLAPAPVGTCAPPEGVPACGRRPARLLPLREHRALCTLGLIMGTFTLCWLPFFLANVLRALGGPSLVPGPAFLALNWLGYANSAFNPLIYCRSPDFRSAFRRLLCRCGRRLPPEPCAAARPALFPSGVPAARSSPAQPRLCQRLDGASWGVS
Procedure: The ability of the compounds of this invention to treat or inhibit disorders related to insulin resistance or hyperglycemia was confirmed with representative compounds of this invention in the following standard pharmacological test procedures, which measured the binding selectivity of the β1-, β2-, and β3-AR. Binding to the receptors was measured in Chinese Hamster ovary (CHO) cells that were transfected with β1-, β2-, and β3-AR's. The following briefly summarizes the procedures used and results obtained.
Cloning of Human β3-AR Genomic DNA: cDNA was constructed by ligating four polymerase chain reaction (PCR) products using the following primers: an ATG-Narl fragment, sense primer 5′-[…]3′ and anti-sense primer 5′[…]3′; a Narl-Accl fragment, 5′[…]3′ as sense and 5′[…]3′ as anti-sense primer; an Accli—Styl fragment, sense primer 5′[…]3′ and anti-sense primer 5′[…]3′ and a Styl-TAG fragment, with sense primer 5′ […]3′ and anti-sense primer 5′ […]3′ . The corresponding primer sequences are described in Mantzoros, C. S., et.al., Diabetes, 1996, 45, 909-914. The four fragments are ligated into a pUC 18 plasmid (Gibco-BRL) and sequenced. Full-length β3-AR clones (402 amino acids) containing the last 6 amino acids of hβ3-AR are prepared with the β3-βARpcDNA3 from ATTC.
Binding Procedure: Clones expressing receptor levels of 70 to 110 fmoles/mg protein were used in the test procedures. CHO cells were grown in 24-well tissue culture plates in Dulbecco's Modified Eagle Media with 10% fetal bovine serum, MEM non-essential amino acids, Penicillin—Streptomycin and Geneticin. On the day of test procedure, growth medium was replaced with preincubation media (Dulbecco's Modified Eagle Media) and incubated for 30 minutes at 37° C. Pre-incubation medium was replaced with 0.2 ml treatment medium containing DMEM media containing 250 μM IBMX (isobutyl-1-methylxantine) plus 1 mM ascorbic acid with test compound dissolved in DMSO. Test compounds were assayed over a concentration range of 10^−9 M to 10^−5 M for β3-AR transfected cells and 10^−8 to 10^−4 M for β1-AR and β2-AR transfected cells. Isoproterenol (10^−5 M) was used as an internal standard for comparison of activity. Cells were incubated at 37° C. on a rocker for 30 min with the β3-AR transfected cells and 15 min with β1-AR and β2-AR transfected cells. Incubation was stopped by the addition of 0.2N HCl and the acid was neutralized with 2.5N NaOH. The plates, containing the cells and neutralized media, were stored at −20° C. until ready to test for cAMP using the SPA test kit (Amersham).
Data Analysis and Results: Data collected from the SPA test procedure were analyzed as percent of the maximal isoproterenol response at 10^−5 M. Activity curves were plotted using the SAS statistical and graphics software.

Row | melting point | EC50 (human β3-AR) | IA(β3) (human β3-AR) | Compound
1 | 146 to 155 °C | – | – | CCCCCCCCCCNC1=NS(=O)(=O)N=C1Nc1ccc(CC(C)NC[C@H](O)COc2ccc(O)cc2)cc1 (stereo partly drawn) (as salt: HCl) [Compound 25, 4-((2S)-3-{2-[4-(4-Decylamino-1,1-dioxo-1H-1(lambda(6))-[1,2,5]thiadiazol-3-ylamino)-phenyl]-1-methyl-ethylamino}-2-hydroxy-propoxy)-phenol]
2 | – | – | 0.39 | CCCCCCCCCCNC1=NS(=O)(=O)N=C1Nc1ccc(CC(C)NC[C@H](O)COc2ccccc2)cc1 (stereo partly drawn) [Compound 20, (2S)-1-{2-[4-(4-Decylamino-1,1-dioxo-1H-1(lambda(6))-[1,2,5]thiadiazol-3-ylamino)-phenyl]-1-methyl-ethylamino}-3-phenoxy-propan-2-ol]
3 | – | 88 nM | 0.85 | CCCCCCCCCCNC1=NS(=O)(=O)N=C1Nc1ccc(CC(C)NC[C@H](O)COc2ccc(O)cc2)cc1 (stereo partly drawn) [Compound 25, 4-((2S)-3-{2-[4-(4-Decylamino-1,1-dioxo-1H-1(lambda(6))-[1,2,5]thiadiazol-3-ylamino)-phenyl]-1-methyl-ethylamino}-2-hydroxy-propoxy)-phenol]
4 | – | 14 nM | 0.89 | CC(C)(Cc1ccc(NC2=NS(=O)(=O)N=C2NCC(c2ccccc2)c2ccccc2)cc1)NC[C@H](O)COc1ccc(O)cc1 [Compound 29, 4-[(2S)-3-(2-{4-[4-(2,2-Diphenyl-ethylamino)-1,1-dioxo-1H-1(lambda(6))-[1,2,5]thiadiazol-3-ylamino]-phenyl}-1,1-dimethyl-ethylamino)-2-hydroxy-propoxy]l-phenol]
5 | – | 5 nM | 1.0 | CC(Cc1ccc(NC2=NS(=O)(=O)N=C2NCC2(c3ccccc3)CCCC2)cc1)NC[C@H](O)COc1ccc(O)cc1 (stereo partly drawn) [Compound 31, 4-{(2S)-3-[2-(4-{1,1-Dioxo-4-[(1-phenyl-cyclopentylmethyl)-amino]-1H-1(lambda(6))-[1,2,5]thiadiazol-3-ylamino}-phenyl)-1-methyl-ethylamino]-2-hydroxy-propoxy}-phenol]
6 | – | 90 nM | 0.62 | CCOC(=O)CCCNC1=NS(=O)(=O)N=C1Nc1ccc(CC(C)NC[C@H](O)COc2ccc(OCc3ccccc3)cc2)cc1 (stereo partly drawn) [Compound 32, 4-[4-(4-{2-[(2S)-3-(4-benzyloxy-phenoxy)-2-hydroxy-propylamino]-propyl}-phenylamino)-1,1-Dioxo-1H-1(lambda(6))-[1,2,5]thiadiazol-3-ylamino]-butyric acid ethyl ester]
7 | – | 37 nM | 1.17 | CCOC(=O)CCCNC1=NS(=O)(=O)N=C1Nc1ccc(CC(C)NC[C@H](O)COc2ccc(O)cc2)cc1 (stereo partly drawn) [Compound 33, 4-{4-(4-{2-[(2S)-2-Hydroxy-3-(4-hydroxy-phenoxy)-propylamino]-propyl}-phenylamino)-1,1-dioxo-1H-1.lambda(6).-[1,2,5]thiadiazol-3-ylamino]-butyric acid ethyl ester]
8 | – | 0.8 nM | 1.0 | CN(C)c1ccc(C2(CNC3=NS(=O)(=O)N=C3Nc3ccc(CC(C)(C)NCC(O)c4ccc(O)c(NS(C)(=O)=O)c4)cc3)CCCC2)cc1 (centres unmarked) [Compound 34, N-[5-(2-{2-[4-(4-{[1-(4-dimethylamino-phenyl)-cyclopentylmethyl]-amino}-1,1-dioxo-1H-1.lambda(6).-[1,2,5]thiadiazol-3-ylamino)-phenyl]-1,1-dimethyl-ethylamino}-1-hydroxy-ethyl)-2-hydroxy-phenyl]-methanesulfonamide]

The next lines start with the compound.

Row | Compound | melting point | EC50 (human β3-AR) | IA(β3) (human β3-AR)
9 | CCCCCCCCNC1=NS(=O)(=O)N=C1Nc1ccc(CC(C)(C)NC[C@H](O)COc2ccc(O)cc2)cc1 (as salt: HCl) [Compound 4] | 229.5 to 231.3 °C | – | –
10 | CCCCCCCCNC1=NS(=O)(=O)N=C1Nc1ccc(CC(C)(C)NC[C@H](O)COc2ccc(OCc3ccccc3)cc2)cc1 [4 (step F)] | – | 1060 nM | 0.37
11 | CCCCCCCCNC1=NS(=O)(=O)N=C1Nc1ccc(CCNC[C@H](O)COc2ccc(OCc3ccccc3)cc2)cc1 [5 (step E), (2S)-1-(4-Benzyloxy-phenoxy)-3-{2-[4-(4-octylamino-1,1-dioxo-1H-1.lambda(6).-[1,2,5]thiadiazol-3-ylamino)-phenyl]ethylamino}-propan-2-ol] | – | 1390 nM | 0.15
12 | CCCCCCCCNC1=NS(=O)(=O)N=C1Nc1ccc(CC(C)NC[C@H](O)c2ccc(OCc3ccccc3)c(NS(C)(=O)=O)c2)cc1 (stereo partly drawn) [6 (step B), N-[2-Benzyloxy-5-((1R)-1-hydroxy-2-{1-methyl-2-[4-(4-octylamino-1,1-dioxo-1H-1(lambda(6))-[1,2,5]thiadiazol-3-ylamino)-phenyl]-ethylamino}-ethyl)-phenyl]-methanesulfonamide] | – | – | 0.32
13 | CN(C)c1ccc(C2(CNC3=NS(=O)(=O)N=C3Nc3ccc(CC(C)(C)NC[C@H](O)COc4ccc(OCc5ccccc5)cc4)cc3)CCCC2)cc1 [7 (step E), (2S)-1-(4-Benzyloxy-phenoxy)-3-{2-{4-(4-{[1-(4-dimethylamino-phenyl)-cyclopentylmethyl]-amino}-1,1-dioxo-1H-1(lambda(6))-[1,2,5]thiadiazol-3-ylamino)-phenyl]-1,1-dimethyl-ethylamino}-propan-2-ol] | – | 682 nM | 0.56
14 | CCCCCCNC(=O)Nc1ccc(C2(CNC3=NS(=O)(=O)N=C3Nc3ccc(CC(C)(C)NC[C@@H](O)COc4ccc(OCc5ccccc5)cc4)cc3)CCCC2)cc1 [8 (step H), 1-[4-(1-{[4-(4-{2-[(2R)-3-(4-Benzyloxy-phenoxy)-2-hydroxy-propylamino]-2-methyl-propyl}-phenylamino)-1 1-dioxo-1H-1.lambda(6).-[1,2,5]thiadiazol-3-ylamino]-methyl}-cyclopentyl)-phenyl]-3-hexyl-urea] | – | 60 nM | 0.40
15 | CCCCCCCCNC1=NS(=O)(=O)N=C1Nc1ccc(CC(C)NCC(O)c2cccc(Cl)c2)cc1 [Compound 3, (1R)-1-(3-Chloro-phenyl)-2-{1-methyl-2-[4-(octylamino-1,1-dioxo-1H-1-.lambda(6).-1,2,5]thiadiazol-3-ylamino)-phenyl]-ethylamino}-ethanol] | – | 38 nM | 0.86
16 | CCCCCCCCNC1=NS(=O)(=O)N=C1Nc1ccc(CC(C)(C)NC[C@H](O)COc2ccc(O)cc2)cc1 [Compound 4] | – | 68 nM | 1.10
17 | CN(C)c1ccc(C2(CNC3=NS(=O)(=O)N=C3Nc3ccc(CC(C)(C)NC[C@H](O)COc4ccc(O)cc4)cc3)CCCC2)cc1 [Compound 7, 4-{[(2S)-3-({2-[4-({4-[({1-[4-(dimethylamino)phenyl]cyclopentyl}methyl)amino]1,1-dioxido-1,25-thiadiazol-3-yl}amino)phenyl]-1 1-dimethylethyl}amino)-2-hydroxypropyl]oxy}phenol] | – | 55 nM | 0.74
18 | CCCCCCCCNC1=NS(=O)(=O)N=C1Nc1ccc(CC(C)NC[C@H](O)COc2ccc(OCc3ccccc3)cc2)cc1 (stereo partly drawn) [Compound 11, (2S)-1-(4-Benzyloxy-phenoxy)-3-{1-methyl-2-[4-(4-octylamino-1,1-dioxo-1H-1.lambda(6).-[1,2,5]thiadiazol-3-ylamino)-phenyl]-ethylamino}-propan-2-ol] | – | – | 0.29
19 | CCCCCCCCNc1c(Nc2ccc(CC(C)NC[C@H](O)COc3ccc(O)cc3)cc2)c(=O)c1=O (stereo partly drawn) [Compound 14, 3-(4-{2-[(2S)-2-Hydroxy-3-(4-hydroxy-phenoxy)-propylamino]-propyl}-phenylamino)-4-octylamino-cyclobut-3-ene-1,2-dione] | – | 21 nM | 0.81
20 | CCCCCCCCCCNC1=NS(=O)(=O)N=C1Nc1ccc(CC(C)NC[C@H](O)COc2cccc3[nH]c4ccccc4c23)cc1 (stereo partly drawn) [Compound 19, (2S)-1-(9H-Carbozol-4-yloxy)-3-{2-[4-(4-decylamino-1,1-dioxo-1H-1-.lambda(6).-[1,2,5]thiadiazol-3-ylamino)-phenyl]-1-methyl-ethylamino}-propan-2-ol] | – | – | 0.36
21 | (2S)-1-(4-Benzyloxy-phenoxy)-3-{2-[4-(4-decylamino-1,1-dioxo-1H-1-. lambda(6).-[1,2,5]thiadiazol-3-ylamino)-phenyl]-1-methyl-ethylamino}-propan-2-ol [Compound 18] | – | – | 0.46
